Entries after “also recorded” stand apart in the source; their conditions may differ.
Legend:
Fabry mice [1] = details: mouse, in vivo, ip
[2] = tested on: Gaucher and/or Fabry B-cell lines; experiment: Effect on cultured cell GSLs (TLC, orcinol detection); format: cell-based; details: 3 days, GSL fractions by TLC/orcinol
Fabry mice [3] = details: mouse, in vivo

Compound: CCOC/C=C/c1ccc(-c2nc(-c3ccc(NC(C)C)cc3)c(-c3ccc(NC(C)C)cc3)[nH]2)cc1 [Formula 2]
- VT1 staining (Fabry mice [1]): decreased VT1 staining
- levels of GlcCer and/or LacCer (Fabry mice [1]): increased levels
- levels of complex GSLs such as Gb3 (Fabry mice [1]): lower levels
- Gb3 levels ([2]; 4 μM): decrease
- LacCer and GlcCer levels ([2]; 4 μM): increased
- complex GSL levels ([2]; 8 μM): significant reduced
- heart Gb3 staining (VT1) (Fabry mice [3]): effective in reducing heart Gb3 staining
- liver Gb3 staining (VT1) (Fabry mice [3]): essentially no residual staining for Gb3 within the liver; also recorded: considerably less than in the control group; also recorded: more effective in reducing liver Gb3 staining as compared to mice treated with cyclosporine; also recorded: essentially removed Gb3 from the liver Kupffer cells

— patent publication US9023845B2, “Compositions and methods for treating lysosomal disorders” (priority 2007, dated 2015)
